Entries after “also recorded” stand apart in the source; their conditions may differ. Read-outs that look alike come from different tables or passages of the source.
What was measured:
[1] = tested on: Punta toro; conditions: literature (Smee et al.; Sidwell et al.); cited from earlier work
[2] = tested on: mice; conditions: cited from earlier work
[3] = tested on: cowpox; conditions: cidofovir 30 mg/kg i.p.; Smee et al. 2002; cited from earlier work
[4] = tested on: Type I interferon in serum; assay: Type I interferon in serum of mice injected with TOG and Mb; format: in vivo; conditions: mice injected intravenously with TOG 250 μg and increasing doses of Mb
Protocol: (§1) Type I interferon in serum was measured and results are shown.

[5] = tested on: human peripheral blood mononuclear cells; assay: Cytokine production of TLR-L-stimulated human peripheral blood mononuclear cells with IMPDH inhibitors; format: cell-based
[6] = tested on: splenocytes; assay: Type I interferon production by splenocytes (bioassay); format: cell-based, mice; conditions: for TLR7 mediated type I interferon production in splenocytes: TOG or R-848 with or without Mb 10 μM, 24 hrs
Protocol: as §1
Splenocytes of WT or SCID mice were stimulated with the indicated stimuli and Type I interferon was by bioassay.
(FIG. 20.) Splenocytes of WT or SCID mice were stimulated with the indicated stimuli and Type I interferon levels were determined by bioassay.

[7] = tested on: Mouse bone marrow-derived macrophages (BMDM); assay: Cytokine production of TLR ligand-stimulated BMDM with IMPDH inhibitors (ELISA); format: cell-based; conditions: for IL-12 production with TOG plus IMPDH inhibitor: TOG 100 μM, mizoribine 10 μM or mizoribine base 10 μM; for cytokine production induced by several different TLR-L: mouse bone marrow derived macrophages
[8] = tested on: IRF-1, IRF-3, IRF-7, NF-kB, STAT-1; assay: Activation of IRFs, NF-kB and STAT-1 in BMDM (immunoblotting of nuclear extracts, EMSA); format: cell-based, mouse
[9] = tested on: human peripheral blood leukocytes (hPBL); assay: IL-12 production in human peripheral blood leukocytes (ELISA); format: cell-based; conditions: TOG 100 μM, 24 hours
[10] = tested on: STAT-1; assay: STAT-1 activation in hPBL (western blotting); format: cell-based, human; conditions: by TOG, R-848 1 μM plus increasing doses, 3 hrs
Protocol: In the right panel, hPBL were stimulated with R-848 (1 μM) plus increasing doses of Mb or ribavirin (Rb) for 3 hrs and activation of STAT-1 was measured by western blotting. β-actin levels were measured as a control

[11] = tested on: DNA dependent protein kinase catalytic subunit (DNA-PKcs); assay: Activation of DNA-PK in BMDM (in vitro kinase assay, GST-p53 substrate or autophosphorylation); format: cell-based
Protocol: IMPDH inhibitors and TLR7 activate DNA-PK. BMDM were stimulated with the Mb alone, TOG alone, or a combination of Mb and TOG. Activation of DNA-PK was measured by in vitro kinase assay using a GST-p53 substrate or DNA-PKcs autophosphorylation.
Activation of DNA-PK was measured by in vitro kinase assay using a GST-p53 substrate or DNA-PKcs autophosphorylation.

[12] = tested on: bone marrow derived dendritic cells (DC's); assay: TLR7 signaling in bone marrow derived dendritic cells; format: cell-based; conditions: DC's stimulated by R-848 with Mb
Protocol: Bone marrow derived DC's were stimulated by R-848 with or without Mb for the indicated time period, and activation of NF-κB, MAP kinases (p38 and EKR) was measured. Actin levels were measured as a control.

[13] = tested on: Salmonella; conditions: human macrophages treated overnight with IFN-γ 100 ng/ml; over 24 hours; cited from earlier work
[14] = tested on: Listeria monocytogenes; assay: Listeria infection in mice pretreated with TLR ligands; format: in vivo; conditions: 10 μg three days before infection with 7×10^5 Listeria monocytogenes, observed nine days
Protocol: Groups of six mice were injected with 10 μg of either ISS-ODN, Pam3Cys, or polyI:C three days before infection with 7×10^5 Listeria monocytogenes. […] 5 mice also each received 10 μg of R-848, 24 hours before infection. […]

[15] = tested on: BALB/c mice; assay: Systemic adjuvant activity: intradermal immunization with ovalbumin (OVA) and TLR ligand; format: in vivo
Protocol: Recently, the systemic adjuvant activities of other TLR-Ls were evaluated.
Six-week-old BALB/c mice (4 per group) were intradermally immunized with ovalbumin (OVA) (20 ug) and TLR ligand on day 0 and day 7. During week 6, serum was collected and splenocytes were harvested and cultured with OVA (50 ug/ml). After 3 days, splenocyte culture supernatants were collected. Sera Ig levels and splenocyte supernatant cytokine levels were determined by ELISA. Results are reported as means ± standard errors. n.d.=none detected.

[16] = tested on: murine bone marrow mononuclear cells; assay: Cytokine responses of murine bone marrow mononuclear cells to TLR ligands (ELISA); format: cell-based; conditions: 48 hours, supernatant ELISA, PolyI:C 100 μg/ml, LPS 1 μg/ml, ISS-ODN 10 μg/ml, n.d.=none detected
Protocol: The cytokine responses of murine bone marrow mononuclear cells were compared to a TLR2-L (PGS), a TLR3-L (polyI:C), a TLR4-L(LPS), and a TLR9-L (ISS-ODN). IL-12, IL-10, IL-6, IL-1b, and KC (a chemokine) were assayed by ELISA (See 2.1.b Results).
Bone marrow cells were cultured in triplicate at 5×10^5 cells/ml with each TLR ligand in dose response studies covering a 3 log concentration range. The cells were cultured for 48 hours and supernatant cytokine levels were analyzed by ELISA. The minimal optimal concentration for each reagent was reported with a three fold increase in TLR ligand concentration not leading to any significant increase in cytokine production. Results are reported as means ± standard errors. n.d.=none detected

[17] = tested on: mice; assay: ISS pre-priming before β-gal immunization (splenocyte IFN-γ and CTL response); format: in vivo; conditions: ISS up to 14 days prior to β-gal, compared to β-gal alone (P≦0.05)
Source text: FIG. 3 depicts splenocyte CTL and IFN-γ response after intradermal ISS pre-priming. Results represent the mean ± SE for four mice in each group and similar results were obtained in two other independent experiments. […] (a) IFN-γ response. […] (C) Comparison of CTL response at an effector:target ratio of 25:1.
In this experiment, the amount of time between which a mouse exposed to an antigen can produce an immune response was examined. (FIG. 3)
The results in FIG. 3 represent the mean ± SE for four mice in each group. Similar results were obtained in two other independent experiments. […] (A) IFN-γ response. […] (C) Comparison of CTL response at an effector:target ratio of 25:1.

[18] = splenocytes of week 6 cultured 3 days with OVA 50 ug/ml, supernatant ELISA, same immunization, n.d.=none detected

## Nc1nc2c(ccn2[C@@H]2O[C@H](CO)[C@@H](O)[C@H]2O)c(=O)[nH]1 [7-deazaguanosine]
[1]
  protection of mice from Punta toro virus infection: protected mice from lethal infection
[2]; after systemic administration
  toxicity to mice: remarkably non-toxic to mice

## CCCCCCn1cnc2c(=O)[nH]c(N)nc21 [9-hexylguanine]
[1]
  protection of mice from Punta toro virus infection: protected mice from lethal infection

## Nc1ccn(C[C@@H](CO)OCP(=O)(O)O)c(=O)n1 [Cidofovir, cidofovir]
[3]
  lung viral titer: ~10^7 PFU/g of lung
  protection of mice from death: protects all mice from death

## NC(=O)c1ncn([C@@H]2O[C@H](CO)[C@@H](O)[C@H]2O)c1O [Mizoribine, mizoribine]
[4]
  increase of Type I interferon in blood (serum): more than 4 fold
[5]
  cytokine production induced by several different TLR-L: potentiated cytokine production
[6]
  TLR7 mediated type I interferon production in splenocytes: more than two-fold
[7]; 24 hrs
  IL-12 production with TOG plus IMPDH inhibitor: synergize with TOG
[7]
  cytokine production induced by several different TLR-L: potentiated cytokine production

## NC(=O)c1ncn([C@@H]2O[C@H](CO)[C@@H](O)[C@H]2O)n1 [Ribavirin]
[5]
  cytokine production induced by several different TLR-L: potentiated cytokine production
[8]; BMDM, TOG with Rb 50 μM
  TOG-induced NF-κB activation (EMSA) and IRF-3 (western blotting): enhances TOG-induced NF-κB activation and activates IRF-3 transcription factor
[9]
  IL-12 production after stimulation with TOG: enhanced the increase of IL-12 production
[1]
  protection of mice from Punta toro virus infection: significant activity
[10]
  activation of STAT-1: enchanced activiation
[7]; macrophages, abolished by addition of guanosine to the media (not shown)
  IL-6 production by R-848 in the presence of ribavirin: enhancement of IL-6 production by R-848
[7]
  cytokine production induced by several different TLR-L: potentiated cytokine production
[7]; no TLR ligand
  cytokine induction by ribavirin alone: did not induce any cytokines
[7]; ribavirin 10, 50, 100 μM, TLR ligands TOG 100 μM, R-848 1 μM, Pam3Cys 5 μg, p(I:C) 5 μg, LPS 10 ng, ISS 5 μg, 24 hrs
  TLR-mediated production of IL-12 (p40) in the presence of ribavirin: enhances TLR-mediated production of IL-12 (p40) in a dose dependent manner

## Nc1nc2c(sc(=O)n2[C@@H]2O[C@H](CO)[C@@H](O)[C@H]2O)c(=O)[nH]1 [TOG, 7-thia-8-oxoguanosine]
[8]; bone marrow cells exposed to TOG
  levels of nuclear IRF-1, IRF-3 and IRF-7: increase markedly
[1]
  protection of mice from Punta toro virus infection: protected mice from lethal infection; also recorded: significant activity
[11]; single agents
  activation of DNA-PKcs: activate DNA dependent protein kinase catalytic subunit (DNA-PKcs)
[2]; mouse, in vivo
  toxicity to mice: remarkably non-toxic to mice

## NC(=O)c1[nH]cnc1O [mizoribine base]
[4]
  increase of Type I interferon in blood (serum): augments TLR-7 mediated type I interferon production
[5]
  cytokine production induced by several different TLR-L: potentiated cytokine production
[8]; cells from wild-type mice and SCID mice
  dependence of IRF activation on DNA-PKcs and MyD88: via DNA-PKcs but not MyD88
[9]
  IL-12 production after stimulation with TOG: enhanced the increase of IL-12 production
[12]
  TLR7 signaling (NF-κB, MAP kinases p38 and EKR): enhanced TLR7 signaling in DC's
[6]
  TLR7 mediated type I interferon production in splenocytes: augments TLR-7 mediated type I interferon production
[6]; splenocytes of WT or SCID mice, TOG 100 μM, Mb 10 μM
  dependence of type I interferon induction by TOG combined with Mb on DNA-PKcs: partially dependent on DNA-PKcs
[11]
  DNA-PK activation by the combination of TOG and Mb: increased phosphorylation of substrates and earlier onset of phosphorylation
[10]
  activation of STAT-1: enchanced activiation
[7]; 24 hrs
  IL-12 production with TOG plus IMPDH inhibitor: synergize with TOG
[7]
  cytokine production induced by several different TLR-L: potentiated cytokine production

## COc1c(C)c2c(c(O)c1C/C=C(\C)CCC(=O)O)C(=O)OC2 [mycophenolic acid]
[9]
  IL-12 production after stimulation with TOG: enhanced the increase of IL-12 production

## IFN-γ
[13]
  killing of the inoculum: 90-99%

## Pam3Cys
[14]
  protection (survival) of mice from Listeria infection: lived longer than controls

## PolyI:C
[15]; mouse, in vivo
  systemic adjuvant activity for vaccination: effective systemic adjuvants
[15]; serum, week 6, OVA 20 ug + TLR ligand i.d. day 0 and day 7, PGS 50 ug, PolyI:C 50 ug, LPS 20 ug, ISS-ODN 50 ug
  IgGl: 18853 ± 2439 U/ml
[15]; serum, week 6, OVA 20 ug + TLR ligand i.d. day 0 and day 7, PGS 50 ug, PolyI:C 50 ug, LPS 20 ug, ISS-ODN 50 ug, n.d.=none detected
  IgG2a: 2642 ± 380 U/ml
[15]; [18]
  IFNg: 672 ± 322 pg/mL
  IL-5: 236 ± 87 pg/mL
[16]; 5×10^5 cells/ml, minimal optimal concentration: PGS 100 μg/ml, means ± standard errors
  IL-12: 570 ± 62 pg/mL
[16]; PGS 100 μg/ml
  IL-1b: 148 ± 27 pg/mL
  IL-6: 2380 ± 657 pg/mL
  IL-10: 1374 ± 237 pg/mL
[16]; chemokine, PGS 100 μg/ml
  KC: 349 ± 62 pg/mL

## m-ODN: control mutated ODN 5′-TGACTGTGAAGGTTAGAGATGA-3′ that lacks ISS activity (DNA, all phosphorothioate, methylation of C not given here)
[17]
  CTL response: did not demonstrate an increased IFN-γ or CTL response
  splenocyte IFN-γ response: did not demonstrate an increased IFN-γ or CTL response

— patent US20050004144A1, “Combined use of IMPDH inhibitors with toll-like receptor agonists” (REGENTS OF THE UNIVERSITY OF CALIFORNIA, priority 2003, published 2005)
